One data set concerns the target T1, GAL4-mPPARγ (Mus musculus, UniProt P37238).
T1 construct: expressed in transfected cells; host or cells: COS7
In words: GAL4-mPPARγ activation, transient transfection luciferase reporter in COS7 cells. To be noted: for Activation COS7 (result in words), ToxPi chemicals / Activation COS7 (result in words), ToxCast PPARγ list / AC50: Cos-7 transient transfection; for Activation COS7 (result in words), ToxPi chemicals: PPARγ or RXRα activation assays (Table 2); for Activation of GAL4-PPARγ (text): COS7, 100 μM through 0.137 μM; for Activation COS7 (result in words), ToxCast PPARγ list: PPARγ activation or antagonism assays (Table 1, Table S6). It counts as cell-based. In general terms: In a reporter assay the amount or activity of a reporter protein is the signal.

In data set [1] the test system is 3T3-L1 preadipocytes. Also noted: method as in earlier work. To be noted: not tested here; ref Kanayama et al. 2005; Li et al. 2012; Chamorro-García et al. 2012; Masuno et al. 2002; cited from earlier work.
The subject of data set [2] is PPARγ. To be noted: cited from earlier work.
Another data set has as its system PPRE. Also noted: method as in Knudsen et al. 2011. To be noted: ToxCast Phase I 2011 release; NA = not active; ref Knudsen et al. 2011; read-out: ATGC PPRE AC50; cited from earlier work.
Data set [3] concerns 3T3-L1 preadipocytes. In words: 3T3-L1 adipogenesis assay (lipid accumulation, adipogenic gene expression). Format: cell-based. To be noted: 0.02-20 μM, 5 days after MDI induction. Put shortly:
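After 2-day MDI induction with biotin and pantothenate, 3T3-L1 cells were treated 5 days with chemicals at 0.02–20 μM (0.1% DMSO; 10 μM if toxic). Lipid read as Nile red/Hoechst fluorescence ratio; adipogenic genes by QPCR, 2^ΔΔCt versus 36b4, normalized to DMSO.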

The test system of the next data set is DR4/LXRE. Also noted: method as in Knudsen et al. 2011. To be noted: ToxCast Phase I 2011 release; NA = not active; ref Knudsen et al. 2011; read-out: ATGC LXRE AC50; cited from earlier work.
A further data set deals with LXRα. Also noted: method as in Knudsen et al. 2011. To be noted: ToxCast Phase I 2011 release; NA = not active; ref Knudsen et al. 2011; read-out: ATGT LXRα AC50; cited from earlier work.
For data set [4], the system named is LXRβ. Also noted: method as in Knudsen et al. 2011. To be noted: ToxCast Phase I 2011 release; NA = not active; ref Knudsen et al. 2011; read-out: ATGT LXRβ AC50; cited from earlier work.
Another data set deals with Human PPARγ. To be noted: cited from earlier work.
The subject of data set [5] is PPARγ. To be noted: ref Filer et al. 2014, cited from earlier work.
Data set [6] relates to PPARγ. Also noted: method as in Filer et al. 2014. To be noted: PPARγ; NA = not active; ref Filer et al. 2014; read-out: NCGC Antag. AC50, 2014 Release; cited from earlier work.
Another data set relates to SREBP. Also noted: method as in Knudsen et al. 2011. To be noted: ToxCast Phase I 2011 release; NA = not active; ref Knudsen et al. 2011; read-out: ATGC SREBP AC50; cited from earlier work.
The test system of data set [7] is LXRβ. Also noted: method as in Knudsen et al. 2011. To be noted: ToxCast Phase I 2011 release; NA = not active; ref Knudsen et al. 2011; read-out: NCGC LXR AC50; cited from earlier work.
A further data set concerns COS7 cells. In words: Cytotoxicity in transfected COS7 cells measured as decreased β-galactosidase activity. To be noted: African green monkey, 24 h. How it is done:
pCMX-Gal4, pCMX-Gal4-mPPARγ, and pCMX-Gal4-hRXRα were previously described ([Grün et al. 2006]). Transient transfections were performed in COS7 cells as described ([Chamorro-García et al. 2012]). Briefly, COS7 cells were seeded at 15,000 cells per well in 96-well tissue culture plates in 10% calf bovine serum. The following day, cells were transfected in Opti-MEM at ~ 90% confluency. One microgram of CMX-GAL4 effector plasmid was co-transfected with 5 μg tk-(MH100)4-luciferase reporter and 5 μg of CMX-β-galactosidase transfection control plasmids in Opti-MEM® using Lipofectamine® 2000 reagent (Invitrogen™ Life Technologies, Carlsbad, CA, USA), following the manufacturer’s recommended protocol. All chemicals were solvated in dimethyl sulfoxide (DMSO). After overnight incubation, the medium was replaced with Dulbecco’s Modified Eagle Medium (DMEM; HyClone, Logan, UT, USA), 10% resin charcoal stripped fetal bovine serum (FBS) plus ligands at concentrations indicated in the figure legends for an additional 24 hr. DMSO concentration was maintained at 0.05% across all chemical treatments. Cells were lysed and assayed for luciferase and β-galactosidase activity as previously described ([Forman et al. 1995]). All transfections were performed in triplicate and reproduced in multiple experiments. Data are reported as fold induction or reduction over vehicle ([…]) controls ± SEM (standard error of the mean) using standard propagation of error ([Bevington and Robinson 2003]). […] The EC50, EC10, IC50, and IC10 values from NCGC and ToxCast™ are reported from gain AC50 and AC10 values in the ToxCast™ 2014 release ([Filer et al. 2014]).
Figure 1 ToxCast™ Chemical Activity on PPARγ. The ability of a graded dose series of ToxCast™ chemicals to (A) activate or (B) antagonize GAL4-mPPARγ was tested in transiently transfected COS7 cells. (A, B) Data points are averages of triplicate transfections (three biological replicates). […] Data are depicted as (A) fold induction or (B) reduction over vehicle (0.05% DMSO) controls ± SEM. (A) ToxCast™ chemicals were tested in 3-fold serial dilutions from 100 μM through 0.137 μM, with the final data point being 0.05% DMSO. Rosiglitazone serves as a positive control activator. (B) ToxCast™ chemicals were tested in 3-fold serial dilutions from 100 μM, in competition with 50 nM rosiglitazone (Rosi). […] (C) EC50, EC10, IC50, and IC10 values calculated from A and B are reported and compared to commercial assays (see Figure S1). Note: ATG, Attagene GAL-PPARγ activation assay; NCGC, GeneBLAzer® agonist (EC values) or antagonist (IC values) assays. Triphenyltin was previously published ([Kanayama et al. 2005]).

The next data set deals with C/EBP. Also noted: method as in Knudsen et al. 2011. To be noted: ToxCast Phase I 2011 release; NA = not active; ref Knudsen et al. 2011; read-out: ATGC CEBP AC50; cited from earlier work.
Setting [8] is: ToxCast Phase I 2011 release, NA = not active, ref Knudsen et al. 2011, read-out: ATGT PPARγ AC50.
[9] abbreviates: PPARγ, NA = not active, ref Filer et al. 2014, read-out: ATG Agonist AC50, 2014 Release.
The mark [10] stands for this setting: PPARγ, NA = not active, ref Knudsen et al. 2011, read-out: ATG Agonist AC50, 2011 Release.
Setting [11] is: PPARγ direct binding, NA = not active, ref Filer et al. 2014, read-out: NVS Agonist AC50, 2014 Release.
[12] abbreviates: PPARγ direct binding, NA = not active, ref Knudsen et al. 2011, read-out: NVS Agonist AC50, 2011 Release.
The mark [13] stands for this setting: PPARγ, NA = not active, read-out: NCGC Agonist AC50, 2014 Release.

Results on six compounds are retold here after paper PMC4977052, “On the Utility of ToxCast™ and ToxPi as Methods for Identifying New Obesogens” (Environmental Health Perspectives, 2016).

Each structure is given as a SMILES string. Like-named read-outs stand apart in the source and are kept apart here.

T1 sequence (P37238 with tags, fused parts or gaps limits assumed): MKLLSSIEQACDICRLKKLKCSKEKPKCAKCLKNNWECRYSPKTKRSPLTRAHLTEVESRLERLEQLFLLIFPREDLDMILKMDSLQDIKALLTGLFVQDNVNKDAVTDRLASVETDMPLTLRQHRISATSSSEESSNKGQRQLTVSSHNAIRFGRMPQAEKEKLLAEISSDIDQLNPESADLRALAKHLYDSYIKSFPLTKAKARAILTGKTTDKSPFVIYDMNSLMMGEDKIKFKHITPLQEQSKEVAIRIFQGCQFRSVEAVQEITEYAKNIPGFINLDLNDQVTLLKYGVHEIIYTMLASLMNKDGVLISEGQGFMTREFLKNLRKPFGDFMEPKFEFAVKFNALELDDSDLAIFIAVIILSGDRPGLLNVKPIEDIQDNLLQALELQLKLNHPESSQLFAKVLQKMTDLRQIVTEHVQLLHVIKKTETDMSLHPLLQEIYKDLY

`CC(C)(c1ccc(O)cc1)c1ccc(O)cc1` [Bisphenol A]: the “Activation COS7 (result in words), ToxPi chemicals” value (from here on “Activation COS7 … ToxPi chemicals”) on GAL4-mPPARγ is “Inactive”. For the same compound, the “Adipogenesis 3T3-L1 (result in words), previously published” value in the data set with 3T3-L1 preadipocytes [1] was “Positive”. The results for the AC50 in the data set on PPARγ [2] (setting [8]) and in the data set on PPRE were 27 µM and 37 µM, respectively.

As to `COP(=S)(OC)Oc1ccc(SC)c(C)c1` [Fenthion], the “Activation COS7 … ToxPi chemicals” value at GAL4-mPPARγ was “Inactive”. For the same compound, the “Adipogenesis 3T3-L1 (result in words)” value in the data set with 3T3-L1 preadipocytes [3] is on record as “Negative”. In addition, the AC50 with PPARγ [2] (setting [8]) is 36 µM; with DR4/LXRE, 34 µM; in the data set with LXRα it was 33 µM; in the data set on LXRβ [4], 37 µM; in the data set with PPRE it was 18 µM.

As for `[OH-].c1cc[c]([Sn+]([c]2ccccc2)[c]2ccccc2)cc1` [Triphenyltin], at GAL4-mPPARγ, the “Activation of GAL4-PPARγ (text)” value is “activated GAL-PPARγ”. Also, on GAL4-mPPARγ, the “Activation COS7 (result in words), ToxCast PPARγ list” value is “PPARγ activator”. In addition, on GAL4-mPPARγ, the “Activation COS7 … ToxPi chemicals” value is “PPARγ activator”. Further, the AC50 at GAL4-mPPARγ (read-out: Activation AC50 (PPARγ activators)) is 0.02 µM; in the data set with PPARγ [2] (setting [9]), 0.02 µM; in the data set on PPARγ [2] (setting [10]), 0.022 µM; in the data set with Human PPARγ (setting [11]) it was 0.28 µM; in the data set with Human PPARγ (setting [12]), 0.54 µM; in the data set with PPARγ [5] (setting [13]), 21.6 µM. Besides, the AC50 with PPARγ [6] was 0.02 µM; in the data set with PPRE, 0.009 µM. Further, in the data set on 3T3-L1 preadipocytes [1], the “Adipogenesis 3T3-L1 (result in words), previously published” value is “Positive”.

On to `CCOP(=S)(Oc1cnc(C(C)(C)C)nc1)OC(C)C` (stereo not shown) [Tebupirimfos], for which the “Activation COS7 … ToxPi chemicals” value at GAL4-mPPARγ is given as “Inactive”. In the data set on 3T3-L1 preadipocytes [3], the “Adipogenesis 3T3-L1 (result in words)” value is “Positive”. Besides, the AC50 was 43 µM in the data set with PPARγ [2] (setting [8]); 9.4 µM in the data set with DR4/LXRE; 30 µM in the data set with LXRα; 22 µM in the data set on LXRβ [4]; 31 µM in the data set with SREBP; 7.1 µM in the data set with LXRβ [7].

As for `CCCOC/C(=N\c1ccc(Cl)cc1C(F)(F)F)n1ccnc1` [Triflumizole], the “Activation of GAL4-PPARγ (text)” value on GAL4-mPPARγ was “activated GAL-PPARγ”. For the same compound, the AC50 on GAL4-mPPARγ is 11.5 µM; in the data set on PPARγ [2] (setting [9]) it was 2.2 µM; with PPARγ [2] (setting [10]), 2.8 µM; with PPARγ [2] (ToxCast 2014 release, ref Filer et al. 2014, read-out: Attagene AC50 (panel A, w/o Z-Score Correction ranking)) it was 20.4 µM; in the data set on Human PPARγ (setting [11]), 20.8 µM; in the data set on Human PPARγ (setting [12]) it was 35 µM. Also, the AC50 in the data set with Human PPARγ (direct binding, ToxCast 2014 release, ref Filer et al. 2014, read-out: NovaScreen AC50 (panel A)) was 14.1 µM; with PPARγ [5] (setting [13]), 67.5 µM; in the data set with PPARγ [5] (ToxCast 2014 release, read-out: Tox21/NCGC AC50 (panel A)), 79.9 µM; with PPARγ [6], 0.3 µM. For the same compound, on GAL4-mPPARγ, the “Activation COS7 (result in words), ToxCast PPARγ list” value is “PPARγ activator”. Besides, the “Concentration at which cytotoxicity (decreased β-galactosidase activity) was observed” value with COS7 cells turned out to be 100 µM. The “Adipogenesis 3T3-L1 (result in words), previously published” value with 3T3-L1 preadipocytes [1] is reported as “Positive”.

For `C=CCC1=C(C)C(OC(=O)C2C(C=C(C)C)C2(C)C)CC1=O` (mixture of isomers) [d-cis,trans-Allethrin], the “Activation COS7 … ToxPi chemicals” value at GAL4-mPPARγ is listed as “Inactive”. Also, the “Adipogenesis 3T3-L1 (result in words)” value with 3T3-L1 preadipocytes [3] is given as “Negative”. Further, the AC50 with PPARγ [2] (setting [8]) was 36 µM; in the data set with C/EBP, 25 µM; in the data set on PPRE, 36 µM; in the data set on SREBP, 48 µM; with LXRβ [7], 11.9 µM.
